Results as given in US6881741B2 (ViroChem Pharma Inc., priority 2001, dated 2005).

The compounds below were run against recombinant HCV NS5B (HCV RNA-dependent RNA polymerase) (Hepatitis C virus genotype 1b, UniProt P26663) (assay: biochemical). Conditions: HCV polymerase activity, list of compounds of Example 27; read-out: IC50 (polymerase activity).
recombinant HCV NS5B (HCV RNA-dependent RNA polymerase), sequence (P26663 2420-3010 limits assumed): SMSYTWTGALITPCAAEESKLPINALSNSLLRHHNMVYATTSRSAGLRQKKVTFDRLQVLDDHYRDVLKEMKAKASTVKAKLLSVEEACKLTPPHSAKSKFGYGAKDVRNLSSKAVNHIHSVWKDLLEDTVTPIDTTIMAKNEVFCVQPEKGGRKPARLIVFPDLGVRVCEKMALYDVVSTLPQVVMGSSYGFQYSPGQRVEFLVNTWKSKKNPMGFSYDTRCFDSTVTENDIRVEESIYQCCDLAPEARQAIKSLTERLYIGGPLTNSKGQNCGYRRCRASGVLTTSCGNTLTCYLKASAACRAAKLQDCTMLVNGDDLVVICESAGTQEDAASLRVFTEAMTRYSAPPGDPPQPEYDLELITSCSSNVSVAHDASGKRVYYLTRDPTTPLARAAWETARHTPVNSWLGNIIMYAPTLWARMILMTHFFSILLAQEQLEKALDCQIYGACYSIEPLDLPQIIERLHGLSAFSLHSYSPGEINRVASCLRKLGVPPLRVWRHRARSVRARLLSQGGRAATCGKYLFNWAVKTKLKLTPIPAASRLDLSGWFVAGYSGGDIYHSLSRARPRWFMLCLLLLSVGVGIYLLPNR
For `CCCC(=O)N(CC)c1cc(-c2ccccc2)sc1C(=O)O` [Compound 493, 3-(BUTYRYL-ETHYL-AMINO)-5-PHENYL- THIOPHENE-2-CARBOXYLIC ACID], the IC50 was 5 to 20 µM.
For `CCN(C(=O)CCC(C)C)c1cc(-c2ccccc2)sc1C(=O)O` [Compound 494, 3-[ETHYL-(4-METHYL-PENTANOYL)- AMINO]-5-PHENYL-THIOPHENE-2- CARBOXYLIC ACID], the IC50 was < 5 µM.
`O=C(O)c1sc(-c2ccccc2)cc1N(Cc1ccc(F)cc1F)C(=O)C1CCC1` [Compound 495, 3-[CYCLOBUTANECARBONYL-(2,4- DIFLUORO-BENZYL)-AMINO]-5-PHENYL- THIOPHENE-2-CARBOXYLIC ACID] was tested, and the IC50 was < 5 µM.
For `CCCC(=O)N(Cc1ccc(F)cc1F)c1cc(-c2ccccc2)sc1C(=O)O` [Compound 496, 3-[BUTYRYL-(2,4-DIFLUORO-BENZYL)- AMINO]-5-PHENYL-THIOPHENE-2- CARBOXYLIC ACID], the IC50 was < 5 µM.
For `CN(C(=O)C1CCCC1)c1cc(-c2ccccc2)sc1C(=O)O` [Compound 497, 3-(CYCLOPENTANECARBONYL-METHYL- AMINO)-5-PHENYL-THIOPHENE-2- CARBOXYLIC ACID], the IC50 was < 5 µM.
For `CN(C(=O)C1CCCCC1)c1cc(-c2ccccc2)sc1C(=O)O` [Compound 498, 3-(CYCLOHEXANECARBONYL-METHYL- AMINO)-5-PHENYL-THIOPHENE-2- CARBOXYLIC ACID], the IC50 was < 5 µM.
`CC(C)(C)OC(=O)N1CCC(N(C(=O)c2ccc(Cl)cc2Cl)c2cc(-c3ccccc3)sc2C(=O)O)C1` (centres unmarked) [Compound 499, 3-[(2-CARBOXY-5-PHENYL-THIOPHEN-3- YL)-(2,4-DICHLORO-BENZOYL)-AMINO]- PYRROLIDINE-1-CARBOXYLIC ACID #TERT!-BUTYL ESTER] was tested, and the IC50 was < 5 µM.
In the case of `CC(C)N(c1cc(-c2ccccc2)sc1C(=O)O)C(=O)[C@]1(C)CC[C@@H](C)CC1` [Compound 500, 3-[(1,4-DIMETHYL- CYCLOHEXANECARBONYL)-ISOPROPYL- AMINO]-5-PHENYL-THIOPHENE-2- CARBOXYLIC ACID], the IC50 is reported as < 5 µM.
For `CCc1ccc(-c2cc(N(C(=O)c3ccc(C)cc3O)C(C)C)c(C(=O)O)s2)cc1` [Compound 501, 5-(4-ETHYL-PHENYL)-3-[(2-HYDROXY-4- METHYL-BENZOYL)-ISOPROPYL-AMINO]- THIOPHENE-2-CARBOXYLIC ACID], the IC50 was < 5 µM.
With `Cc1cccc(-c2cc(N(C(=O)c3ccc(C)cc3O)C(C)C)c(C(=O)O)s2)c1` [Compound 502, 3-[(2-HYDROXY-4-METHYL-BENZOYL)- ISOPROPYL-AMINO]-5-#M!-TOLYL- THIOPHENE-2-CARBOXYLIC ACID] the IC50 was < 5 µM.
For `O=C(O)c1sc(-c2ccccc2)cc1N(C(=O)c1ccc(Cl)cc1Cl)C1CCNC1` (centres unmarked) [Compound 503, 3-[(2,4-DICHLORO-BENZOYL)- PYRROLIDIN-3-YL-AMINO]-5-PHENYL- THIOPHENE-2-CARBOXYLIC ACID], the IC50 was 5 to 20 µM.
In the case of `CC(C)N(C(=O)c1ccc(Cl)cc1Cl)c1cc(C2=CCN(C(=O)OCc3ccccc3)CC2)sc1C(=O)O` [Compound 504, 4-(5-CARBOXY-4-[(2,4-DICHLORO- BENZOYL)-ISOPROPYL-AMINO]- THIOPHEN-2-YL)-3,6-DIHYDRO-2#H!- PYRIDINE-1-CARBOXYLIC ACID BENZYL ESTER], the IC50 is reported as < 5 µM.
In the case of `Cc1ccc(C(=O)N(c2cc(-c3ccccc3)sc2C(=O)O)C(C)C)c(/C=N/O)c1` [Compound 505, 3-{[2-(HYDROXYIMINO-METHYL)-4- METHYL-BENZOYL]-ISOPROPYL-AMINO)-5- PHENYL-THIOPHENE-2-CARBOXYLIC ACID], the IC50 is reported as 5 to 20 µM.
In the case of `N=C(N)N1CCC(N(C(=O)c2ccc(Cl)cc2Cl)c2cc(-c3ccccc3)sc2C(=O)O)CC1` [Compound 506, 3-[(1-CARBAMIMIDOYL-PIPERIDIN-4-YL)- (2,4-DICHLORO-BENZOYL)-AMINO]-5- PHENYL-THIOPHENE-2-CARBOXYLIC ACID], the IC50 is reported as < 5 µM.
`CC(C)(C)OC(=O)N1CCCC(N(C(=O)c2ccc(Cl)cc2Cl)c2cc(-c3ccccc3)sc2C(=O)O)CC1` (centres unmarked) [Compound 507, 4-[(2-CARBOXY-5-PHENYL-THIOPHEN-3- YL)-(2,4-DICHLORO-BENZOYL)-AMINO]- AZEPANE-1-CARBOXYLIC ACID TERT!- BUTYL ESTER] was tested, and the IC50 was < 5 µM.
In the case of `O=C(O)c1sc(-c2ccccc2)cc1N(CC1CCN(C(=O)OCc2ccccc2)CC1)C(=O)c1ccc(Cl)cc1Cl` [Compound 508, 4-{[(2-CARBOXY-5-PHENYL-THIOPHEN-3- YL)-(2,4-DICHLORO-BENZOYL)-AMINO]- METHYL}-PIPERIDINE-1-CARBOXYLIC ACID BENZYL ESTER], the IC50 is reported as < 5 µM.
With `CC(C)(C)OC(=O)N1CCCC(N(C(=O)c2ccc(Cl)cc2Cl)c2cc(-c3ccccc3)sc2C(=O)O)C1` (centres unmarked) [Compound 511, 3-[(2-CARBOXY-5-PHENYL-THIOPHEN-3- YL)-(2,4-DICHLORO-BENZOYL)-AMINO]- PIPERIDINE-1-CARBOXYLIC ACID #TERT!-BUTYL ESTER] the IC50 was < 5 µM.
`O=C(NC1CCC(N(C(=O)c2ccc(Cl)cc2Cl)c2cc(-c3ccccc3)sc2C(=O)O)CC1)OCc1ccccc1` (centres unmarked) [Compound 512, 3-[(4-BENZYLOXYCARBONYLAMINO- CYCLOHEXYL)-(2,4-DICHLORO- BENZOYL)-AMINO]-5-PHENYL- THIOPHENE-2-CARBOXYLIC ACID] was tested, and the IC50 was < 5 µM.
`CC1CCC(C(=O)N(c2cc(-c3ccccc3)sc2C(=O)O)C(C)C)C(=O)C1` (centres unmarked) [Compound 513, 3-[ISOPROPYL-(4-METHYL-2-OXO- CYCLOHEXANECARBONYL)-AMINO]-5- PHENYL-THIOPHENE-2-CARBOXYLIC ACID] was tested, and the IC50 was < 5 µM.
With `O=C(O)c1sc(-c2ccccc2)cc1N(C(=O)c1ccc(Cl)cc1Cl)C1CCCNC1` (centres unmarked) [Compound 514, 3-[(2,4-DICHLORO-BENZOYL)-PIPERIDIN- 3-YL-AMINO]-5-PHENYL-THIOPHENE-2- CARBOXYLIC ACID; COMPOUND WITH GENERIC INORGANIC NEUTRAL COMPONENT] the IC50 was < 5 µM.
For `O=C(NC1CCC(N(C(=O)c2ccc(Cl)cc2Cl)c2cc(-c3ccccc3)sc2C(=O)O)CC1)OCc1ccccc1` (centres unmarked) [Compound 515, 3-[(4-BENZYLOXYCARBONYLAMINO- CYCLOHEXYL)-(2,4-DICHLORO- BENZOYL)-AMINO]-5-PHENYL- THIOPHENE-2-CARBOXYLIC ACID], the IC50 was < 5 µM.
`CC(COCc1ccccc1)N(C(=O)c1ccc(Cl)cc1Cl)c1cc(-c2ccccc2)sc1C(=O)O` (centres unmarked) [Compound 516, 3-[(2-BENZYLOXY-1-METHYL-ETHYL)- (2,4-DICHLORO-BENZOYL)-AMINO]-5- PHENYL-THIOPHENE-2-CARBOXYLIC ACID] was tested, and the IC50 was < 5 µM.
`CC1CCC(C(=O)N(c2cc(-c3ccccc3)sc2C(=O)O)C2COC(C)(C)OC2)CC1` (centres unmarked) [Compound 517, 3-[(2,2-DIMETHYL-[1,3]DIOXAN-5-YL)-(4- METHYL-CYCLOHEXANECARBONYL)- AMINO]-5-PHENYL-THIOPHENE-2- CARBOXYLIC ACID] was tested, and the IC50 was < 5 µM.
With `O=C(O)c1sc(-c2ccccc2)cc1N(C(=O)c1ccc(Cl)cc1Cl)C(CO)CO` [Compound 518, 3-[(2,4-DICHLORO-BENZOYL)-(2- HYDROXY-1-HYDROXYMETHYL-ETHYL)- AMINO]-5-PHENYL-THIOPHENE-2- CARBOXYLIC ACID] the IC50 was < 5 µM.
With `O=C(O)c1sc(-c2ccccc2)cc1N(CC1CCNCC1)C(=O)c1ccc(Cl)cc1Cl` [Compound 519, 3-[(2,4-DICHLORO-BENZOYL)-PIPERIDIN- 4-YLMETHYL-AMINO]-5-PHENYL- THIOPHENE-2-CARBOXYLIC ACID] the IC50 was < 5 µM.
`O=C(O)c1sc(-c2ccccc2)cc1N(CC1CCNCC1)C(=O)c1ccccc1Cl` [Compound 520, 3-[(2-CHLORO-BENZOYL)-PIPERIDIN-4- YLMETHYL-AMINO]-5-PHENYL- THIOPHENE-2-CARBOXYLIC ACID] was tested, and the IC50 was < 5 µM.
